US8466164B2

Columns and labels:
SaOS-2 cells = assay: MTT cell viability assay on SaOS-2; conditions: SaOS-2, MTT, control = 100%, mean ± SD; for CV (%) after 24 h (cellular viability with respect to control): 24 h treatment; for CV (%) after 48 h (cellular viability with respect to control): 48 h treatment, 25 μM
recombinant human Src = recombinant human Src (Homo sapiens, UniProt P12931); assay: cell-free Src enzymatic assay; format: biochemical; conditions: calculated from ID50; triplicate, mean values; read-out: Ki toward recombinant human Src
recombinant human Src, sequence (P12931 whole entry): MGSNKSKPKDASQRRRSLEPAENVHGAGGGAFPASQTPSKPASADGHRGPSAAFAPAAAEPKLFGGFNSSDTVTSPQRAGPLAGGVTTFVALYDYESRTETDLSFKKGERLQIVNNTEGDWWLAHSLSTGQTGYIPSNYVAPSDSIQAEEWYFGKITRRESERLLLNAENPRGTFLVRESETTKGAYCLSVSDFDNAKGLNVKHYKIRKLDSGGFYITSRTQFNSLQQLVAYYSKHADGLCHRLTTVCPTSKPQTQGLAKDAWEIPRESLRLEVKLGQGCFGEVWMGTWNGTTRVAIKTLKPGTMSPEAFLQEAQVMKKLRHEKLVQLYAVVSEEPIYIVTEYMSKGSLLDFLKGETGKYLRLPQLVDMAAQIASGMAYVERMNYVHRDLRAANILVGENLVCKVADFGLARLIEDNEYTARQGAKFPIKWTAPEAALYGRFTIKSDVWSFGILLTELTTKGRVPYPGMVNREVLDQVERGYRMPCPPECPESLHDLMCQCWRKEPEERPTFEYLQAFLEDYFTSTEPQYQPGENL

SMILES	CV (%) after 24 h (cellular viability with respect to control) (SaOS-2 cells) [%]	CV (%) after 48 h (cellular viability with respect to control) (SaOS-2 cells) [%]	melting point [°C]	Ki (recombinant human Src) [nM]
CSc1nc(NCCc2ccccc2Cl)c2cnn(CC(Cl)c3ccccc3)c2n1 (centres unmarked) [SI-59]	102.9 ± 1.3	100.5 ± 0.5	99 to 100	
CSc1nc(NCCc2ccccc2)c2cnn(CC(Cl)c3ccc(Cl)cc3)c2n1 (centres unmarked) [SI-71]	99.9 ± 0.9	89.4 ± 2.3	127 to 129	
CSc1nc(Nc2cccc(Br)c2)c2cnn(CC(Cl)c3ccccc3)c2n1 (centres unmarked) [SI-91]	100.1 ± 1.1	84.7 ± 0.3		1800
CCSc1nc(NCCc2ccccc2)c2cnn(CC(Cl)c3ccccc3)c2n1 (centres unmarked) [S1-72]	107.3 ± 3.5	22.2 ± 1.3	99 to 100	
CSc1nc(NCc2ccccc2F)c2cnn(CC(Cl)c3ccccc3)c2n1 (centres unmarked) [SI-86]	104.1 ± 1.3	99.7 ± 0.4		
CSc1nc(NCc2ccccc2Cl)c2cnn(CC(Cl)c3ccccc3)c2n1 (centres unmarked) [SI-88]	101.7 ± 0.9	102.1 ± 1.2	158 to 159	
CSc1nc(NCc2ccc(Cl)cc2)c2cnn(CC(Cl)c3ccccc3)c2n1 (centres unmarked) [SI-87]	113.4 ± 1.5	54.9 ± 2.4	126 to 127	
CSc1nc(NCc2cccc(F)c2)c2cnn(CC(Cl)c3ccccc3)c2n1 (centres unmarked) [SI-85]	106.2 ± 3.0	71.3 ± 2.1	113 to 114	
CSc1nc(NCc2ccccc2)c2cnn(CC(Cl)c3ccc(Cl)cc3)c2n1 (centres unmarked) [SI-70]	52.2 ± 2.4	24.4 ± 2.5	130 to 131	
CSc1nc(NCCc2ccc(C)cc2)c2cnn(CC(Cl)c3ccccc3)c2n1 (centres unmarked) [SI-60]	101.9 ± 1.9	96.3 ± 1.1	99 to 100	
CSc1nc(NCc2ccc(F)cc2)c2cnn(CC(Cl)c3ccccc3)c2n1 (centres unmarked) [SI-84]	102.1 ± 1.4	99.2 ± 1.0	136 to 137	
CSc1nc(Nc2cccc(Br)c2)c2cnn(CC(Cl)c3ccc(F)cc3)c2n1 (centres unmarked) [SI-128]	63.1 ± 1.1	55.4 ± 2.0		
CCSc1nc(Nc2cccc(Cl)c2)c2cnn(CC(Cl)c3ccccc3)c2n1 (centres unmarked) [SI-96]	76.5 ± 1.9	44.3 ± 1.8		500
CSc1nc(NCc2ccccc2)c2cnn(CC(Cl)c3ccc(F)cc3)c2n1 (centres unmarked) [SI-65]	62.7 ± 0.7	44.4 ± 2.5	152 to 153	
CSc1nc(NCCc2cccc(Cl)c2)c2cnn(CC(Cl)c3ccccc3)c2n1 (centres unmarked) [SI-58]	80.6 ± 0.7	39.3 ± 2.0	122 to 123	
CCCSc1nc(Nc2cccc(Cl)c2)c2cnn(CC(Cl)c3ccccc3)c2n1 (centres unmarked) [SI-101]	77.8 ± 3.0	6.4 ± 1.9		
CSc1nc(NCCc2ccc(Cl)cc2)c2cnn(CC(Cl)c3ccccc3)c2n1 (centres unmarked) [SI-57]	85.2 ± 0.7	75.4 ± 1.3		
Clc1cccc(Nc2nc(SC3CCCCC3)nc3c2cnn3CC(Cl)c2ccccc2)c1 (centres unmarked) [SI-153]				700
Clc1cccc(Nc2ncnc3c2cnn3CC(Cl)c2ccccc2)c1 (centres unmarked) [S-17]	104.1 ±0.4	101.3 ± 1.5		
COc1ccc(CCNc2nc(SC)nc3c2cnn3CC(Cl)c2ccccc2)cc1 (centres unmarked) [SI-61]	101.0 ± 3.0	49.8 ± 2.1	60 to 61	
CSc1nc(NCCc2cccc(F)c2)c2cnn(CC(Cl)c3ccccc3)c2n1 (centres unmarked) [SI-56]	101.1 ± 1.1	100.8 ± 2.1		
CSc1nc(Nc2ccccc2)c2cnn(CC(Cl)c3ccccc3)c2n1 (centres unmarked) [SI-118]	100.1 ± 1.2	94.4 ± 0.7		
CSc1nc(Nc2cccc(F)c2)c2cnn(CC(Cl)c3ccccc3)c2n1 (centres unmarked) [SI-90]	94.8 ± 2.7	84.3 ± 1.5		
